Activity calls are given as the source filed them. The rule behind the calls is not given here.
Key:
[1] = species on record: Danio rerio; test: Antiinflammatory activity in transgenic fluorescent zebrafish expressing EGFP assessed as reduction in CuSO4 induced macrophage migration at 20 uM preincubated for 2 hrs followed Cuso4 addition and measured after 1 hr by fluorescence microscopic analysis; type: functional, organism-based; conditions: time 3.0 hrs
[2] = species on record: Danio rerio; test: Antiinflammatory activity in transgenic fluorescent zebrafish expressing EGFP assessed as reduction in CuSO4 induced number of macrophages surrounding the neuromast at 20 uM preincubated for 2 hrs followed by Cuso4 addition and measured after 1 hr by fluorescence microscopic analysis; type: functional, organism-based; conditions: time 3.0 hrs

Q: `C=C1CC/C=C(\C)C[C@@H](O)[C@@H]2C(C(C)(C)O)=CC[C@@]2(C)CC1` was tested. Which Activity [1] did it give?
A: Active

Q: What about the Activity [2] of the same compound?
A: Active

Q: How did the Activity [1] turn out when `C=C[C@]1(C)C[C@@H]2NC(=O)C(C)=C2C[C@H]1C(=C)C(=O)OC` was run?
A: Active

Q: What about the Activity [2] of the same compound?
A: Active

Q: How did the Activity [1] turn out when `CC1=C2CC[C@@]3(C)/C=C/[C@]4(C)C[C@](O)(C[C@@H](C)C[C@@H](OC1=O)[C@H]23)OO4` was run?
A: Active

Q: And the Activity [2]?
A: Active

Q: Which Activity [1] does the source give for `COc1ccc2c(c1)c(CC(=O)O)c(C)n2C(=O)c1ccc(Cl)cc1` here?
A: Active

Q: And the Activity [2]?
A: Active

Q: What does the source list for `CC1=C2CC[C@@]3(C)CC/C(C)=C/C(=O)C[C@@H](C)C[C@@H](OC1=O)[C@H]23`?
A: Activity [1]: Active; Activity [2]: Active

Q: `C=C1CC/C=C(\C)C[C@H]2OC(=O)C(C)=C3CC[C@@](C)(CC1)[C@@H]32` was tested. Which Activity [1] did it give?
A: Active

Q: And the Activity [2]?
A: Active

Q: `CC1=C2C(=O)C[C@@]3(C)CC/C(C)=C\C(=O)C[C@@H](C)C[C@@H](OC1=O)[C@H]23` was tested. Which Activity [1] did it give?
A: Active

Q: What about the Activity [2] of the same compound?
A: Active

Q: Which Activity [1] does the source give for `C=C[C@@]1(C)C[C@H]2NC(=O)C(C)=C2C[C@@H]1C(=C)C(=O)OC` here?
A: Active

Q: What about the Activity [2] of the same compound?
A: Active

Q: `CC1=C2CC[C@@]3(C)CC/C(C)=C\C(=O)C[C@@H](C)C[C@@H](OC1=O)[C@]23OO` was tested. Which Activity [1] did it give?
A: Active

Q: And the Activity [2]?
A: Active
